# Assay results reported in patent US6599899B2, “Benzoxazinones as peroxisome proliferator activated receptor gamma modulators and method of treatment” (Ortho-McNeil Pharmaceutical, Inc., priority 2000, dated 2003).
# Test system: aP2 mRNA production
# Experiment: aP2 assay for agonist (induction of aP2 mRNA production, bDNA assay)
# Format: cell-based
# Conditions: preadipocytes
smiles,measurement,value
"CCCCCCN1C(=O)C(CCOc2ccccc2CC(=O)O)Oc2ccccc21 (stereo not shown) [Compound 1, Benzeneacetic acid, 2-[2-(4-hexyl-3,4-dihydro-3-oxo-2H-1,4-benzoxazin-2-yl)ethoxy]-]",Agonist Intrinsic Activity,40.4 fold increase over vehicle
